Results: patent US11180474B2 (BRISTOL-MYERS SQUIBB COMPANY, priority 2016, dated 2021)
Counter-ions that a name gives are not always drawn.

Columns and labels:
human TLR8 = biological target: T1, human TLR8 (Homo sapiens, UniProt Q9NR97); assay: TLR8 inhibition reporter assay (HEK-Blue cells, SEAP reporter, R848 stimulation); type: cell-based; details: HEK-Blue cells overexpressing human TLR8, R848 15.9 μM
T1 construct: host or cells: HEK-Blue cells
T1 sequence (Q9NR97 27-1041): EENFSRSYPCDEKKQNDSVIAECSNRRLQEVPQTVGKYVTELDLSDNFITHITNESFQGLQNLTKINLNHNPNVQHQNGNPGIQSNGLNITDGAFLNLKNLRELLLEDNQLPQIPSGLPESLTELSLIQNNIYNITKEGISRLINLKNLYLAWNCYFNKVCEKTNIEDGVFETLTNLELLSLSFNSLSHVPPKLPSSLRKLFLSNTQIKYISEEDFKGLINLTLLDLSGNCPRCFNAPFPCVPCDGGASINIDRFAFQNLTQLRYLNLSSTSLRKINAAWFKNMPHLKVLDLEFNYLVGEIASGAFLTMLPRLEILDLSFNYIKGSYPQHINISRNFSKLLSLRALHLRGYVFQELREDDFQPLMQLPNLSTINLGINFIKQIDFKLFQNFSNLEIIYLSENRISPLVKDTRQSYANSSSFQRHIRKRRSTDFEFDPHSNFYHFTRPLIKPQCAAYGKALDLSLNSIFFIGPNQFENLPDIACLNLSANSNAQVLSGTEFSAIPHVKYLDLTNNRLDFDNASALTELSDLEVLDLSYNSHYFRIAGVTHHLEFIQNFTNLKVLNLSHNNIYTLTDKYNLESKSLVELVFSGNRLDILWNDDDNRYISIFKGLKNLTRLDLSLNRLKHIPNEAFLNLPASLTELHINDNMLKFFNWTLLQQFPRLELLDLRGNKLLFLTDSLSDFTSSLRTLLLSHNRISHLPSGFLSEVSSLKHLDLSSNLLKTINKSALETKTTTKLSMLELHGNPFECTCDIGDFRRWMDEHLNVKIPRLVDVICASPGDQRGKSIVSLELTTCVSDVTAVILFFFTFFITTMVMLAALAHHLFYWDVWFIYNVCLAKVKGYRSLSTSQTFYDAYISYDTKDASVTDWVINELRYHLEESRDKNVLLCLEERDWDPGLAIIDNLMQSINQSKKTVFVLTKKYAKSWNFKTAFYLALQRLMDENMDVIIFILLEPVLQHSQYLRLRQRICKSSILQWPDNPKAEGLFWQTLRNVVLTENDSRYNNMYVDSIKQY
Method in brief: (§1)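 In this cell reporter format, test compounds at 0.05 nM-50 μM final incubate 22 h with seeded cells (TLR7 15000, TLR8 20,000 per well). SEAP read-out by HEK-Blue Detection medium yields % inhibition relative to agonist/DMSO and known-inhibitor wells.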

human TLR7 = biological target: T2, human TLR7 (Homo sapiens, UniProt Q9NYK1); assay: TLR7 inhibition reporter assay (HEK-Blue cells, SEAP reporter, gardiquimod stimulation); type: cell-based; details: HEK-Blue cells overexpressing human TLR7, gardiquimod 7.5 μM
T2 construct: host or cells: HEK-Blue cells
T2 sequence (Q9NYK1 27-1049): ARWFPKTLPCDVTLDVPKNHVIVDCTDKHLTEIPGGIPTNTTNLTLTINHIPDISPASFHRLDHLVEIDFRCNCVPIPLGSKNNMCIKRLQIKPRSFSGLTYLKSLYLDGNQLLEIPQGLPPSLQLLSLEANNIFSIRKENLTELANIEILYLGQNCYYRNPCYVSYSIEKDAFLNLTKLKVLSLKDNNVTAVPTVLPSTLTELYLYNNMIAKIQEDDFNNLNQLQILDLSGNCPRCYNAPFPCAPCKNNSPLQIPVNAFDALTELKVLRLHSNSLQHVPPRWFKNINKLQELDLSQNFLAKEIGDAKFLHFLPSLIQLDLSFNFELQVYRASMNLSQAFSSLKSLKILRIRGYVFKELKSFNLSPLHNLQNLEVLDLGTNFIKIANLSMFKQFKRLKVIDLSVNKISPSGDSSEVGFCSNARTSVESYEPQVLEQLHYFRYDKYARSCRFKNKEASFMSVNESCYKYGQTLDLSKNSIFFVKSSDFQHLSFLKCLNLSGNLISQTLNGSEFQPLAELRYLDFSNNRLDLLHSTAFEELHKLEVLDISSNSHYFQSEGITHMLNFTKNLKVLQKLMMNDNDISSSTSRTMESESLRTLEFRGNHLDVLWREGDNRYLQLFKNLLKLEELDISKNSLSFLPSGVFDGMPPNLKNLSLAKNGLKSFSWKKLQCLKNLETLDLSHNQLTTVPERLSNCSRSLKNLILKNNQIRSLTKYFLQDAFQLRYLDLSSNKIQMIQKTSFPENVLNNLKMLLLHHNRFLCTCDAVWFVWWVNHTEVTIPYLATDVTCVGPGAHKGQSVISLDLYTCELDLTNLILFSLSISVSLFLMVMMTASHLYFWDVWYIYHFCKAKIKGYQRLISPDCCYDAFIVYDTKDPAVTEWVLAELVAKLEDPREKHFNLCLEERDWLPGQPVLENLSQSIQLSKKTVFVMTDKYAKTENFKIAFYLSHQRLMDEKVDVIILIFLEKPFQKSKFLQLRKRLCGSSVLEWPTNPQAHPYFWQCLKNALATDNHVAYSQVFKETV
Method in brief: as §1

SMILES | IC50 (human TLR8) [nM] | IC50 (human TLR7) [nM]
COc1ccc(-c2[nH]c3ccc(C4CCN(C)CC4)cc3c2CC(F)(F)F)cc1OC [Example 355, 2-(3,4-dimethoxyphenyl)-5-(1-methylpiperidin-4-yl)-3-(2,2,2-trifluoroethyl)-1H-indole] | 41 | 19
COc1ccc(-c2[nH]c3ccc(C4CCNCC4F)cc3c2C(C)C)cc1OC (single isomer, unassigned) [Example 323, 2-(3,4-dimethoxyphenyl)-5-(3-fluoropiperidin-4-yl)-3-isopropyl-1H-indole] | 20 | 42
COc1ccc(-c2[nH]c3ccc(C4CCN(CC(=O)NCCN5CCCC5)CC4)cc3c2CC(F)(F)F)cc1OC [Example 375, 2-(4-(2-(3,4-dimethoxyphenyl)-3-(2,2,2-trifluoroethyl)-1H-indol-5-yl)piperidin-1-yl)-N-(2-(pyrrolidin-1-yl)ethyl)acetamide] | 117 | 29
COc1ccc(-c2[nH]c3ccc(C4CCN(C(=O)CCC(=O)N(C)C)CC4)cc3c2CC(F)(F)F)cc1OC [Example 346, 4-(4-(2-(3,4-dimethoxyphenyl)-3-(2,2,2-trifluoroethyl)-1H-indol-5-yl)piperidin-1-yl)-N,N-dimethyl-4-oxobutanamide] | 529 | 213
COc1ccc(-c2[nH]c3ccc(C4CCN(C(=O)CN(C)C)CC4)cc3c2CC(F)F)cc1OC [Example 399, 1-(4-(3-(2,2-difluoroethyl)-2-(3,4-dimethoxyphenyl)-1H-indol-5-yl)piperidin-1-yl)-2-(dimethylamino)ethan-1-one] | 82 | 106
CCc1c(-c2ccc(OC)c(OC)c2)[nH]c2cc(C)c(C3CCNCC3)cc12 [Example 396, 2-(3,4-dimethoxyphenyl)-3-ethyl-6-methyl-5-(piperidin-4-yl)-1H-indole, HCl] | 295 | 47
COc1ccc(-c2[nH]c3ccc(C4CCN(CC(=O)N5CCC(N6CCCCC6)CC5)CC4)cc3c2CC(F)(F)F)cc1OC [Example 359, 1-([1,4′-bipiperidin]-1′-yl)-2-(4-(2-(3,4-dimethoxyphenyl)-3-(2,2,2-trifluoroethyl)-1H-indol-5-yl)piperidin-1-yl)ethan-1-one] | 63 | 19
COc1ccc(-c2[nH]c3ccc(C4CCN(CC(=O)N5CCN(C(C)=O)CC5)CC4)cc3c2CC(F)(F)F)cc1OC [Example 361, 1-(4-acetylpiperazin-1-yl)-2-(4-(2-(3,4-dimethoxyphenyl)-3-(2,2,2-trifluoroethyl)-1H-indol-5-yl)piperidin-1-yl)ethan-1-one] | 109 | 100
COc1ccc(-c2[nH]c3ccc(C4CCN(C(=O)[C@@H]5CCCN5C(C)=O)CC4)cc3c2CC(F)(F)F)cc1OC [Example 336, (S)-1-(2-(4-(2-(3,4-dimethoxyphenyl)-3-(2,2,2-trifluoroethyl)-1H-indol-5-yl)piperidine-1-carbonyl)pyrrolidin-1-yl)ethan-1-one] | 697 | 359
CCN1CCCC(N2CCC(c3ccc4[nH]c(-c5ccc(OC)c(OC)c5)c(C)c4c3)CC2)C1 (centres unmarked) [Example 24, 2-(3,4-dimethoxyphenyl)-5-(1′-ethyl-[1,3′-bipiperidin]-4-yl)-3-methyl-1H-indole] | 27900 | ≥ 50000
COc1ccc(-c2[nH]c3ccc(C4CCN(CC(=O)NCC(N)=O)CC4)cc3c2CC(F)(F)F)cc1OC [Example 385, N-(2-amino-2-oxoethyl)-2-(4-(2-(3,4-dimethoxyphenyl)-3-(2,2,2-trifluoroethyl)-1H-indol-5-yl)piperidin-1-yl)acetamide] | 41 | 61
COc1ccc(-c2[nH]c3ccc(C4CCN(CC(=O)N5CCC[C@@H]5CO)CC4)cc3c2CC(F)(F)F)cc1OC [Example 371, (R)-2-(4-(2-(3,4-dimethoxyphenyl)-3-(2,2,2-trifluoroethyl)-1H-indol-5-yl)piperidin-1-yl)-1-(2-(hydroxymethyl)pyrrolidin-1-yl)ethan-1-one] | 52 | 79

The next lines start with the values.

IC50 (human TLR8) [nM] | IC50 (human TLR7) [nM] | SMILES
4110 | 1860 | COc1ccc(-c2[nH]c3ccc(C4CCN(C(=O)Cc5c[nH]c6ccccc56)CC4)cc3c2CC(F)(F)F)cc1OC [Example 332, 1-(4-(2-(3,4-dimethoxyphenyl)-3-(2,2,2-trifluoroethyl)-1H-indol-5-yl)piperidin-1-yl)-2-(1H-indol-3-yl)ethan-1-one]
2920 | ≥ 50000 | COc1ccc(-c2[nH]c3ccc(C4CCN(C(=O)NCc5ccco5)CC4)cc3c2CC(F)(F)F)cc1OC [Example 358, 4-(2-(3,4-dimethoxyphenyl)-3-(2,2,2-trifluoroethyl)-1H-indol-5-yl)-N-(furan-2-ylmethyl)piperidine-1-carboxamide]
74 | 159 | COc1ccc(-c2[nH]c3ccc(C4CCN(CC(=O)N5CCN(c6ncccn6)CC5)CC4)cc3c2CC(F)(F)F)cc1OC [Example 368, 2-(4-(2-(3,4-dimethoxyphenyl)-3-(2,2,2-trifluoroethyl)-1H-indol-5-yl)piperidin-1-yl)-1-(4-(pyrimidin-2-yl)piperazin-1-yl)ethan-1-one]
36 | 23 | COc1ccc(-c2[nH]c3ccc(C4CCN(CC(=O)N(C)CCN(C)C)CC4)cc3c2CC(F)(F)F)cc1OC [Example 367, 2-(4-(2-(3,4-dimethoxyphenyl)-3-(2,2,2-trifluoroethyl)-1H-indol-5-yl)piperidin-1-yl)-N-(2-(dimethylamino)ethyl)-N-methylacetamide]
81 | 150 | COc1ccc(-c2[nH]c3ccc(C4CCN(CC(=O)NCCc5ccc(S(N)(=O)=O)cc5)CC4)cc3c2CC(F)(F)F)cc1OC [Example 384, 2-(4-(2-(3,4-dimethoxyphenyl)-3-(2,2,2-trifluoroethyl)-1H-indol-5-yl)piperidin-1-yl)-N-(4-sulfamoylphenethyl)acetamide]
57 | 17 | COc1ccc(-c2[nH]c3ccc(C4CCN(C(=O)CCCN(C)C)CC4)cc3c2CC(F)(F)F)cc1OC [Example 351, 1-(4-(2-(3,4-dimethoxyphenyl)-3-(2,2,2-trifluoroethyl)-1H-indol-5-yl)piperidin-1-yl)-4-(dimethylamino)butan-1-one]
62 | 17 | COc1ccc(-c2[nH]c3ccc(C4CCN(CC(=O)NCCCN(C)C)CC4)cc3c2CC(F)(F)F)cc1OC [Example 382, 2-(4-(2-(3,4-dimethoxyphenyl)-3-(2,2,2-trifluoroethyl)-1H-indol-5-yl)piperidin-1-yl)-N-(3-(dimethylamino)propyl)acetamide]
